Results published in publication PMC7531004, “Discovery of gramicidin A analogues with altered activities by multidimensional screening of a one-bead-one-compound library” (Nature Communications, 2020).
Where two headings read alike, the source gives them in different places. Where a SMILES comes first, the peptide text is derived from it. [ ]: non-standard residue; d: D form. The star is where a group is joined. NHCH2CH2OH = OCCN*; For = O=C*

Experiments:
[1] = test system: P388 mouse leukemia cells; details: 92 h
Outline: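 Peptide stocks diluted 250× in growth medium; P388 cells 1 × 10^4 cells/mL final; 37 °C, 5% CO2, 92 h. WST-1 + 1-methoxy PMS, 4 h, A415. Output: % viability.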

[2] = test system: Streptococcus pyogenes SSI-9; assay: Antibacterial activity assay of bead-derived peptides (three concentrations); type: cell-based; set-up: key: +++: inhibition by the 640-fold diluted peptide solution; ++: inhibition by the 160-fold diluted solution; +: inhibition by the 40-fold diluted solution; -: no inhibition; details: S. pyogenes
Outline: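 Growth inhibition scored visually as precipitated bacteria after 37 °C, 18 h incubation. Streptococcus pyogenes SSI-9 inoculum of 2 × 10^5 CFU in Ca2+/Mg2+-adjusted Mueller Hinton broth plus 5% laked horse blood; peptides tested at three levels: stock, 4-fold and 16-fold DMSO dilutions.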

[3] = Description: (§1) Second, we examined the cytotoxicity toward mammalian cancer cells and hemolytic activity of 1. […] Hemolytic activity was evaluated by monitoring hemoglobin leakage from rabbit red blood cells as a consequence of membrane damage. The concentration of 1 required to cause 10% hemoglobin leakage (HC10) was 160 nM. Thus, the P388 cytotoxicity of 1 was 28-fold more sensitive than its hemolytic activity.
(§2) Mammalian cytotoxicity assay of purified peptides.
(§3) B22 was diluted with the growth medium with 2% DMSO to various concentrations as 5-fold serial dilution.
(§4) The collected cells were resuspended into
(§5) the growth medium at 2 × 10^4 cells/mL. Aliquots of the former medium (2% DMSO, 100 µL) containing
(§6) peptides and the latter medium containing P388 cells (100 µL) were mixed in a 96-well cell culture plate
(§7) (TR5003, TrueLine). The final concentration of P388 cells and DMSO were 1 × 10^4 cells/mL and 1%,
(§8) respectively. […]
(§9) were determined by WST -1 assay. A solution of 1-methoxy PMS and WST-1 in the growth medium
(§10) (1-methoxy PMS 0.70 mg/mL in Milli-Q/WST-1 3.6 mg/mL in pH 7.4 HEPES buffer = 1/9) was added to
(§11) each well of the plate (20.0 µL/well). The cells were incubated for 4 h under atmosphere of 5% CO 2 at
(§12) 37 °C. The absorbance of each well at 415 nm was measured using a Benchmark microplate reader
(§13) (Bio-Rad) or Thermo Scientifi c Multiskan GO (Thermo Fisher Scientific). The cytotoxicities of the purified
(§14) peptides were evaluated as IC 50 (nM) by means of three replicates. Sigmoidal curve fittings were performed

[4] = test system: P388 mouse leukemia cell line
Description: as §1, §2, §3, §4, §5, §6, §7, §8, §9, §10, §11, §12, §13, §14

[5] = test system: MSSA1 (methicillin-susceptible Staphylococcus aureus); type: cell-based
Description: Evaluation of antibacterial spectra of purified peptides. The MIC assay was performed according to the Clinical and Laboratory Standards Institute protocols. The antibacterial activities of the purified peptides A1, B01–B04, B11–B13, B21, and B22 were measured using the broth microdilution method. 6 Serial dilutions of the peptides were prepared in cation adjusted Mueller Hinton Broth. Each dilution (100 µL) was dispensed to each well of the round-bottom plate to obtain final concentrations ranging from 64 µg/mL to 0.00024 µg/mL. Bacteria were grown at 37 °C overnight on Tryptic Soy Broth or Mueller Hinton Broth agar plates.
The bacterial colonies were suspended in 0.9% saline to obtain OD 625 of 0.08–0.13 using a spectrophotometer UV-1280 (Shimadzu). The resultant suspension was diluted with cation adjusted Mueller Hinton Broth (1/20). The resultant mixture (10 .0 µL) was inoculated to each well of the plates (approximately 5 × 10^4 CFU/well), mixed, and incubated at 37 °C for 18–24 h. The MIC value was determined as the minimum concentration that inhibited growth of bacteria. For Streptococcus species, cation adjusted Mueller Hinton Broth supplemented with 5% laked horse blood was used. […]

- antibacterial activity/MIC [5]: 32 µg/mL
SMILES: CC(C)C[C@@H](NC(=O)[C@H](C)NC(=O)CNC(=O)[C@@H](NC=O)C(C)C)C(=O)N[C@@H](C)C(=O)N[C@@H](C(=O)N[C@H](C(=O)N[C@@H](C(=O)N[C@@H](Cc1c[nH]c2ccccc12)C(=O)N[C@H](CC(C)C)C(=O)N[C@@H](Cc1c[nH]c2ccccc12)C(=O)N[C@H](CC(C)C)C(=O)N[C@@H](Cc1c[nH]c2ccccc12)C(=O)N[C@H](CC(C)C)C(=O)N[C@@H](Cc1c[nH]c2ccccc12)C(=O)NCCO)C(C)C)C(C)C)C(C)C [compound 1, Gramicidin A] (For-VGA[dL]A[dV]V[dV]W[dL]W[dL]W[dL]W-NHCH2CH2OH)
- cell viability/% [1]: 100.0%
- antibacterial activity in the library screening [2]: ++ or +
- antibacterial activity ([2]; bead-derived peptide solution, three concentrations): -
- IC50 ([3]; IC50, mammalian cytotoxicity assay): 4.86 nM
- IC50 ([3]; cytotoxicity against P388 cells/IC50): 5.81 ± 0.99 nM
- IC99.6 value (threshold concentration of one-point cytotoxicity assay) [4]: 30 nM
- P388 cytotoxicity more sensitive than hemolytic activity [4]: 28 fold
